Experiment [1] concerns M0 macrophages (hMDMs). Briefly: Dosage response of cell shape change on M0 macrophages. The experiment is classed as cell-based, human.
The test system of experiment [2] is hMDMs differentiated into M2 by IL-4 plus IL-13. Particulars: differentiated macrophages.
Method: (§1) Shown are comparison of Z-scores between 5 μM or 10 μM of compounds. […] Shown are comparison of Z-scores between 5 μM or 10 μM of compounds. […] EC and fitness of 21 M1-polarizing (triangle) and 19 M2-polarizing compounds (circle) were calculated by the Michaelis-Menten equation and plotted. Data were summarized from 3 independent experiments.
(§2) Human macrophages were seeded into optical 384-well plates. Sixteen hours later, medium in M1 plates were replaced by M1 differentiating medium (complete RPMI with 50 ng/mL IFNγ and 50 ng/mL TNFα) and medium in M2 plates by M2 differentiating medium (complete RPMI with 5 ng/mL IL-4 and 5 ng/mL IL-13). After 24 hrs cell differentiation, M1 plates (M1 macrophages) and M2 plates (M2 macrophages) were treated with M2-activating compounds and M1-activating compounds respectively for 24 hrs. Two independent experiments were performed with or without replacing differentiating medium right before treatment. Cell imaging and analysis were performed as indicated above.
(§3) To investigate whether the identified compounds could reprogram or reactivate macrophages after M1- or M2-like differentiation, we rescreened the hits on M1- or M2-activated macrophages. hMDMs were activated into M2-like macrophages by IL-4 plus IL-13 or M1-like macrophages by IFNγ plus TNFα. After removing the differentiating cytokines, M2-like macrophages were treated with each of the 166 M1-activating compounds and M1-like macrophages were treated with each of the 180 M2-activating compounds at a final concentration of either 5 μM and 10 μM. 24 hours later, cell images were taken and cell shapes were quantified. […] Dosage responses were carried out with 40 commercial available compounds (21 M1-activating and 19 M2-activating) on polarized macrophages.
(§4) We also rescreened the hits on differentiated macrophages in the presence of differentiating cytokines: either IL-4 plus IL-13 or IFNγ plus TNFα.
Experiment [3] has the same test system. In words: Reprogramming screen and dosage response on M2-like differentiated macrophages.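 Further: human monocyte-derived macrophages held 24 h in 5 ng/mL IL-4 plus IL-13 before 24 h compound exposure, with cell shape measured from images in 384-well plates.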 As to conditions: Homo sapiens, Macrophage, 24 h, read-out: EC.
Method: as §1, §2, §3, §4

As to `CCCCCCCCc1ccc(CCC(N)(CO)CO)cc1` [FTY720], in experiment [1], the “Max absolute Z-value” was −11.58. Also, the Category entry in experiment [1] (M0 macrophages) and in experiment [2] was “M1 (−4 for M1-activated macrophages)” in each case. Moreover, the EC (M1 Z-score cutoff) in experiment [3] was 0.131 µM.

The values above are taken from US20250262167A1, “COMPOUNDS, TARGETS AND PATHWAYS FOR MACROPHAGE MODULATION” (Massachusetts Institute of Technology, priority 2020, published 2025).
